17 compounds from ChEMBL document CHEMBL2176897, “Synthesis and biological evaluation (in vitro and in vivo) of cyclic arginine-glycine-aspartate (RGD) peptidomimetic-paclitaxel conjugates targeting integrin αVβ3” (J Med Chem, 2012) can be followed below.

Calls of active or inactive are those of the source. Bounds are passed on as bounds.

A short description of series [1]: Selectivity ratio of IC50 for integrin alphaVbeta5 receptor to IC50 for integrin alphaVbeta3 receptor.
The target of series [2] is Integrin alpha-V/beta-5 (Homo sapiens, UniProt P06756+P18084). Kind of series: Competitive inhibition of biotinylated vitronectin to integrin alphaVbeta5 receptor after 3 hrs by microplate reader analysis. It is filed as protein-complex assay.
The nature of series [3]: Half life of the compound in glucose phosphate buffer at pH 7. It is filed as physicochemical.
The target of series [4] is Integrin alpha-V/beta-3 (Homo sapiens, UniProt P05106+P06756). Kind of series: Competitive inhibition of biotinylated vitronectin to integrin alphaVbeta3 receptor after 3 hrs by microplate reader analysis. It counts as protein-complex assay.
Series [5] is described as follows: Cytostatic activity against human dermal fibroblasts assessed as growth inhibition at 64 to 1000 nM after 72 hrs by coulter counter analysis. Conditions: skin fibroblast, 1 µM.
The test system of series [6] is MIA PaCa-2. Kind of series: Cytotoxicity against human MIAPaCa2 cells after 72 hrs by coulter counter analysis. It counts as functional, cell-based. As to conditions: MIA PaCa-2, 72 h.
Series [7] relates to PANC-1. The series is described as follows: Cytotoxicity against human PANC1 cells after 72 hrs by coulter counter analysis. Conditions: PANC-1, 72 h. It is filed as functional, cell-based.
Series [8] deals with SK-OV-3. The series is described as follows: Cytotoxicity against human SKOV3 cells after 72 hrs by coulter counter analysis. It counts as functional, cell-based. As to conditions: SK-OV-3, 72 h.
For series [9], the system named is U2OS. The series is described as follows: Cytotoxicity against human U2OS cells after 72 hrs by coulter counter analysis. It counts as functional, cell-based.
Series [10] concerns IGROV-1. The series is described as follows: Cytotoxicity against cisplatin-resistant human IGROV1/Pt1 cells after 72 hrs by coulter counter analysis. It is filed as functional, cell-based. Conditions: IGROV-1, 72 h.
Series [11] has as its system IGROV-1. The series is described as follows: Cytotoxicity against human IGROV1 cells after 72 hrs by coulter counter analysis. It is filed as functional, cell-based. As to conditions: IGROV-1, 72 h.
In series [12] the test system is IGROV-1. Kind of series: Induction of abberant mitosis in cisplatin-resistant human IGROV1/Pt1 cells overexpressing integrin alphaVbeta3 receptors xenografted in athymic Swiss mouse at 30 mg/kg, iv measured 24 hrs post fourth treatment by hematoxylin and eosin staining. It counts as functional, organism-based. Further details: dose 30 mg/kg. On the technique in general: A xenograft is tissue or cells of one species grown in another, often human tumour cells in immunodeficient mice.

Series [13] deals with IGROV-1. The series is described as follows: Induction of abberant mitosis in cisplatin-resistant human IGROV1/Pt1 cells overexpressing integrin alphaVbeta3 receptors xenografted in athymic Swiss mouse at 30 mg/kg, iv measured 24 hrs post second treatment by hematoxylin and eosin staining. It counts as functional, organism-based. More on the design: dose 30 mg/kg.
The subject of series [14] is Mus musculus. Kind of series: Toxicity in athymic Swiss mouse xenografted with cisplatin-resistant human IGROV1/Pt1 cells overexpressing integrin alphaVbeta3 receptors assessed as body weight loss at 30 mg/kg, iv administered every 4 days for 4 times. It is filed as organism-based, IGROV-1. Further details: dose 30 mg/kg, route intravenous. Conditions: in vivo, 96 h.

The nature of series [15]: Antitumor activity against cisplatin-resistant human IGROV1/Pt1 cells overexpressing integrin alphaVbeta3 receptors xenografted in athymic Swiss mouse assessed as tumor killing at 30 mg/kg, iv administered every 4 days for 4 times. It is filed as functional, IGROV-1.
Series [16] deals with IGROV-1. The series is described as follows: Antitumor activity against cisplatin-resistant human IGROV1/Pt1 cells overexpressing integrin alphaVbeta3 receptors xenografted in athymic Swiss mouse assessed as absence of disease at 30 mg/kg, iv administered every 4 days for 4 times measured up to 10 days. It is filed as functional, organism-based. Further details: dose 30 mg/kg.

The nature of series [17]: Antitumor activity against cisplatin-resistant human IGROV1/Pt1 cells overexpressing integrin alphaVbeta3 receptors xenografted in athymic Swiss mouse assessed as tumor volume inhibition at 30 mg/kg, iv administered every 4 days for 4 times measured after 10 days relative to control. It is filed as functional. As to conditions: IGROV-1.

Broadly, the IC50 is the concentration that inhibits the measured activity by half. Read a high IC50 as weaker potency in that assay. As for `N=C(N)NCCC[C@@H]1NC(=O)C[C@H]2NC(=O)[C@H](CNC(=O)[C@H](CC(=O)O)NC(=O)CNC1=O)N(Cc1ccccc1)C2=O`, the Ratio IC50 in series [1] was determined as 20. This compound returned an IC50 in series [2] of 149 nM.
The term half-life denotes the time needed for the level to fall by half in the phase considered. Low readings indicate fast loss, high ones slow loss. `CC(=O)O[C@H]1C(=O)[C@@]2(C)[C@H]([C@H](OC(=O)c3ccccc3)[C@]3(O)C[C@H](OC(=O)[C@H](OC(=O)CCC(=O)N[C@@H](CCC(=O)NCCCC[C@@H]4NC(=O)[C@@H](Cc5ccccc5)NC(=O)[C@H](CC(=O)O)NC(=O)CNC(=O)[C@H](CCCNC(=N)N)NC4=O)C(=O)NCCCC[C@@H]4NC(=O)[C@@H](Cc5ccccc5)NC(=O)[C@H](CC(=O)O)NC(=O)CNC(=O)[C@H](CCCNC(=N)N)NC4=O)[C@@H](NC(=O)c4ccccc4)c4ccccc4)C(C)=C1C3(C)C)[C@]1(OC(C)=O)CO[C@@H]1C[C@@H]2O` gave a half-life in [3] of 2 h.
On to `N=C(N)NCCC[C@@H]1NC(=O)C[C@@H]2NC(=O)[C@@H](CNC(=O)[C@H](CC(=O)O)NC(=O)CNC1=O)N(Cc1ccccc1)C2=O`, for which, in series [1], the Ratio IC50 was found to be 20. In addition, the concentration for half-maximal inhibition (IC50) worked out at 114 nM in [2] and 3.2 nM in series [4].
In the case of `CC(=O)O[C@H]1C(=O)[C@@]2(C)[C@H]([C@H](OC(=O)c3ccccc3)[C@]3(O)C[C@H](OC(=O)[C@H](OC(=O)CCC(=O)NCc4ccc(CN5C(=O)[C@@H]6CC(=O)N[C@@H](CCCNC(=N)N)C(=O)NCC(=O)N[C@@H](CC(=O)O)C(=O)NC[C@@H]5C(=O)N6)cc4)[C@@H](NC(=O)c4ccccc4)c4ccccc4)C(C)=C1C3(C)C)[C@]1(OC(C)=O)CO[C@@H]1C[C@@H]2O`, in [5], the “growth inhibition (GI)” value is recorded as “Non-toxic”. The concentration for half-maximal inhibition (IC50) in series [6] turned out to be 2 nM; in series [7] it was 5.8 nM; in [8] it was 1.6 nM; in [9] it was 2.2 nM; in [10] it was 18.7 nM; in series [11], 17.7 nM. For the same compound, the IC50 in [2] worked out at 518 nM; in series [4] it was 8.5 nM. For the same compound, the Ratio IC50 in [1] was 20.
`N=C(N)NCCC[C@@H]1NC(=O)C[C@H]2C(=O)N[C@H](CNC(=O)[C@H](CC(=O)O)NC(=O)CNC1=O)C(=O)N2Cc1ccc(CNC(=O)CCC(=O)O)cc1`: the Ratio IC50 in [1] was 20.
Take `CC(=O)O[C@H]1C(=O)[C@@]2(C)[C@H]([C@H](OC(=O)c3ccccc3)[C@]3(O)C[C@H](OC(=O)[C@H](OC(=O)CCC(=O)NCc4ccc(CN5C(=O)[C@@H]6CNC(=O)[C@H](CC(=O)O)NC(=O)CNC(=O)[C@H](CCCNC(=N)N)NC(=O)C[C@@H]5C(=O)N6)cc4)[C@@H](NC(=O)c4ccccc4)c4ccccc4)C(C)=C1C3(C)C)[C@]1(OC(C)=O)CO[C@@H]1C[C@@H]2O`: in series [5], the “growth inhibition (GI)” value is “Non-toxic”. Besides, the IC50 was determined as 2.5 nM in series [6]; 3.5 nM in series [7]; 2.4 nM in series [8]; 5.7 nM in series [9]; 2.4 nM in [10]; 48.2 nM in series [11]. Also, the values for the IC50 in series [2] and in series [4] were 22 nM and 1.1 nM, respectively.
Regarding `N=C(N)NCCC[C@@H]1NC(=O)C[C@@H]2C(=O)N(Cc3ccccc3)[C@@H](CNC(=O)[C@H](CC(=O)O)NC(=O)CNC1=O)C(=O)N2Cc1ccccc1` (stereo in doubt; 7a), the IC50 in [4] turned out to be 0.2 nM.
For `N=C(N)NCCC[C@@H]1NC(=O)C[C@H]2NC(=O)[C@H](CNC(=O)[C@H](CC(=O)O)NC(=O)CNC1=O)N(Cc1ccc(CN)cc1)C2=O.O=C(O)C(F)(F)F`, the “growth inhibition (GI)” value in series [5] is “Non-toxic”. The IC50 is above 11600 nM in series [6]; above 11600 nM in series [7]; above 11600 nM in [8]; above 6300 nM in series [9]; above 18000 nM in series [10]; above 1200 nM in series [11]. For the same compound, the IC50 in series [2] is above 5000 nM; in series [4], 26.4 nM.
On to `N=C(N)NCCC[C@@H]1NC(=O)C[C@@H]2C(=O)N[C@@H](CNC(=O)[C@H](CC(=O)O)NC(=O)CNC1=O)C(=O)N2Cc1ccccc1`, for which the Ratio IC50 in series [1] was found to be 20. Moreover, the concentration for half-maximal inhibition (IC50) was 79 nM in series [2] and 2.1 nM in series [4].
The compound `NC(N)=NCCC[C@@H]1NC(=O)C[C@@H]2NC(=O)[C@H](CNC(=O)[C@H](CC(=O)O)NC(=O)CNC1=O)N(Cc1ccccc1)C2=O` yielded a concentration for half-maximal inhibition (IC50) in [4] of 3.9 nM.
`N=C(N)NCCC[C@@H]1NC(=O)C[C@@H]2C(=O)N(Cc3ccccc3)[C@@H](CNC(=O)[C@H](CC(=O)O)NC(=O)CNC1=O)C(=O)N2Cc1ccccc1` (stereo in doubt; 7b) yielded an IC50 in series [4] of 0.2 nM.
Broadly, the inhibition in vivo is the relative decrease from the control value, in per cent. With `CC(=O)O[C@H]1C(=O)[C@@]2(C)[C@H]([C@H](OC(=O)c3ccccc3)[C@]3(O)C[C@H](OC(=O)[C@H](O)[C@@H](NC(=O)c4ccccc4)c4ccccc4)C(C)=C1C3(C)C)[C@]1(OC(C)=O)CO[C@@H]1C[C@@H]2O` [PACLITAXEL], in series [12], the result was inactive. In addition, the outcome in series [13] and in series [16] was Active. The Activity in series [14] was determined as 4%. In addition, in series [15], the LCK amounted to 0.7. In addition, in [17], the inhibition in vivo at 30 mg/kg was found to be 76%. Further, the “growth inhibition (GI)” value in [5] is given as “Non-toxic”. The IC50 was found to be 7.2 nM in series [6]; 5.2 nM in series [7]; 2.7 nM in series [8]; 3.4 nM in series [9]; 2.2 nM in [10]; 23 nM in series [11].
As to `N=C(N)NCCC[C@@H]1NC(=O)C[C@H]2C(=O)N(Cc3ccccc3)[C@H](CNC(=O)[C@H](CC(=O)O)NC(=O)CNC1=O)C(=O)N2Cc1ccccc1`, the concentration for half-maximal inhibition (IC50) in series [4] is 0.2 nM.
Turning to `N=C(N)NCCC[C@@H]1NC(=O)[C@@H]2CC[C@H]3CCC[C@@H](NC(=O)[C@H](CC(=O)O)NC(=O)CNC1=O)C(=O)N32`, in series [1], the Ratio IC50 came to 20. The half-inhibitory concentration (IC50) in [2] worked out at 1.4 nM; in series [4] it was 1 nM.
Take `CC(=O)O[C@H]1C(=O)[C@@]2(C)[C@H]([C@H](OC(=O)c3ccccc3)[C@]3(O)C[C@H](OC(=O)[C@H](OC(=O)CCC(=O)NCc4ccc(CN5C(=O)[C@H]6CNC(=O)[C@H](CC(=O)O)NC(=O)CNC(=O)[C@H](CCCN=C(N)N)NC(=O)C[C@H]5C(=O)N6)cc4)[C@@H](NC(=O)c4ccccc4)c4ccccc4)C(C)=C1C3(C)C)[C@]1(OC(C)=O)CO[C@@H]1C[C@@H]2O`: in series [5], the “growth inhibition (GI)” value is “Non-toxic”. The IC50 in series [6] came out at 1.8 nM; in series [7], 3.2 nM; in series [8] it was 2.4 nM; in series [9], 6.8 nM; in [10], 3.7 nM; in series [11], 34.4 nM. For the same compound, the IC50 in series [2] was 76 nM; in series [4], 0.9 nM.
With `N=C(N)NCCC[C@@H]1NC(=O)C[C@H]2C(=O)N[C@H](CNC(=O)[C@H](CC(=O)O)NC(=O)CNC1=O)C(=O)N2Cc1ccccc1`, in series [1], the Ratio IC50 is 20. Besides, the IC50 in series [2] came to 216 nM; in series [4], 7.6 nM.
For `NC(N)=NCCC[C@@H]1NC(=O)C[C@H]2C(=O)N[C@H](CNC(=O)[C@H](CC(=O)O)NC(=O)CNC1=O)C(=O)N2Cc1ccc(CNC(=O)CCC(=O)O)cc1`, the values for the half-inhibitory concentration (IC50) in series [2] and in [4] were 75 nM and 4.1 nM, respectively.
